# Measurements from patent US20230159527A1, “COMPOUNDS AS BCL-2 INHIBITORS” (Fochon Pharmaceuticals, Ltd., priority 2020, published 2023).
# Legend:
# Assay type in all cases: cell-based
# Toledo cells = test: Cell proliferation assay, Toledo cells (MTS, 72 h); conditions: Homo sapiens, Toledo cells, MTS, read-out: Toledo IC50
# Procedure, shortened: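 Toledo cells (30000/well, RPMI-1640 with 10% FBS) were preincubated for 4 h. They were then exposed to nine compound concentrations from 10000 to 1.5 nM for 72 h at 37 °C, 5% CO2. MTS was added for 2 h and absorbance read at 490 nm to give IC50.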
# RS4;11-BCL-2 F104L cells = test: Cell proliferation assay, engineered RS4;11 cells stably overexpressing BCL-2 F104L (MTS, 168 h); conditions: Homo sapiens, read-out: RS4, 11 BCL2-F104L
# Procedure, shortened: (§1)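 Proliferation read-out: MTS for exactly 2 h, then absorbance at 490 nm, with IC50 derived from the fit. Before this, engineered RS4;11 lines (BCL-2 G101V, F104L; 5000 cells/well) were exposed 168 h at 37 °C to serially diluted compound, final 1.4–10000 nM.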
# RS4;11-BCL-2 G101V cells = test: Cell proliferation assay, engineered RS4;11 cells stably overexpressing BCL-2 G101V (MTS, 168 h); conditions: Homo sapiens, RS4-11, 168 h, read-out: RS4, 11 BCL2- G101V
# Procedure, shortened: as §1
IC50 (RS4;11-BCL-2 F104L cells) [nM],IC50 (RS4;11-BCL-2 G101V cells) [nM],Compound,IC50 (Toledo cells) [nM]
1,1,"CC(C)c1ccccc1[C@@H]1CCCN1C1CC2(CCN(c3ccc(C(=O)NS(=O)(=O)c4cc5c(c([N+](=O)[O-])c4)N[C@@H]([C@H]4CC[C@](C)(O)CC4)CO5)c(Oc4cc5cc[nH]c5nc4O[C@@H]4CCN(C)C4)c3)CC2)C1 (single isomer, unassigned) [Example D-223, N-(((S)-3-((1r,4S)-4-hydroxy-4-methylcyclohexyl)-5-nitro-3,4-dihydro-2H-benzo[b][1,4]oxazin-7-yl)sulfonyl)-4-(2-((R or S)-2-(2-isopropylphenyl)pyrrolidin-1-yl)-7-azaspiro[3.5]nonan-7-yl)-2-((6-(((R)-1-methylpyrrolidin-3-yl)oxy)-1H-pyrrolo[2,3-b]pyridin-5-yl)oxy)benzamide]",1
1,1,"CC(C)c1ccccc1[C@@H]1CCCN1C1CC2(CCN(c3ccc(C(=O)NS(=O)(=O)c4cc5c(c([N+](=O)[O-])c4)N[C@@H]([C@H]4CC[C@](C)(O)CC4)CO5)c(Oc4cc5cc[nH]c5nc4OC[C@H]4COCCN4C)c3)CC2)C1 (single isomer, unassigned) [Example D-134, N-(((S)-3-((1r,4S)-4-hydroxy-4-methylcyclohexyl)-5-nitro-3,4-dihydro-2H-benzo[b][1,4]oxazin-7-yl)sulfonyl)-4-(2-((R or S)-2-(2-isopropylphenyl)pyrrolidin-1-yl)-7-azaspiro[3.5]nonan-7-yl)-2-((6-(((7)-4-methylmorpholin-3-yl)methoxy)-1H-pyrrolo[2,3-b]pyridin-5-yl)oxy)benzamide]",1
19,57,"COCCOc1nc2[nH]cc(F)c2cc1Oc1cc(N2CCC3(CC2)CN([C@H]2CCC[C@H]2c2ccccc2C(C)C)C3)ccc1C(=O)NS(=O)(=O)c1cnc(NC[C@H]2CC[C@](C)(O)CC2)c([N+](=O)[O-])c1 (single isomer, unassigned) [Example A-154, 2-((3-fluoro-6-(2-methoxyethoxy)-1H-pyrrolo[2,3-b]pyridin-5-yl)oxy)-N-((6-(((1r,4r)-4-hydroxy-4-methyl-cyclohexyl)methyl)amino)-5-nitro-pyridin-3-yl)sulfonyl)-4-(2-((1S,2S or 1R,2R)-2-(2-isopropylphenyyl)cyclo-pentyl)-2,7-diazaspiro[3.5]nonan-7-yl) benzamide]",1
1,1,"CC(C)c1ccccc1[C@@H]1CCCN1C1CC2(CCN(c3ccc(C(=O)NS(=O)(=O)c4cc5c(c([N+](=O)[O-])c4)N[C@@H]([C@H]4CC[C@](C)(O)CC4)CO5)c(Oc4cc5cc[nH]c5nc4OCCN(C)C)c3)CC2)C1 (single isomer, unassigned) [Example D-60, 2-((6-(2-(dimethylamino)ethoxy)-1H-pyrrolo[2,3-b]pyridin-5-yl)oxy)-N-(((S)-3-((1r,4S)-4-hydroxy-4-methylcyclohexyl)-5-nitro-3,4-dihydro-2H-benzo[b][1,4]oxazin-7-yl)sulfonyl)-4-(2-((R or S)-2-(2-isopropylphenyl)pyrrolidin-1-yl)-7-azaspiro[3.5]nonan-7-yl)benzamide]",1
12,13,"COCCOc1nc2[nH]cc(F)c2cc1Oc1cc(N2CCC3(CC2)CC(N2CCC[C@H]2c2ccccc2C(C)C)C3)ccc1C(=O)NS(=O)(=O)c1cc2c(c([N+](=O)[O-])c1)N[C@@H]([C@H]1CC[C@](C)(O)CC1)CO2 (single isomer, unassigned) [Example D-71, 2-((3-fluoro-6-(2-methoxyethoxy)-1H-pyrrolo[2,3-b]pyridin-5-yl)oxy)-N-(((S)-3-((1r,4S)-4-hydroxy-4-methylcyclohexyl)-5-nitro-3,4-dihydro-2H-benzo[b][1,4]oxazin-7-yl)sulfonyl)-4-(2-((R or S)-2-(2-isopropylphenyl)pyrrolidin-1-yl)-7-azaspiro[3.5]nonan-7-yl)benzamide]",1
